Test results reported in patent US10809252B2, “Time-resolved fluorescent immunochromatographic assay rapid test kit for type I pyrethroid” (priority 2017, dated 2020).

Legend:
[1] = system: universal monoclonal antibody against type I pyrethroid (hybridoma cell line QW8#); test: conventional indirect competitive ELISA; assay type: binding, mouse
Excerpt: To screen the target positive hybridoma cell line that is a highly specific and sensitive cell line against pyrethroid containing a diphenyl ether structure (by screening with etofenprox standard), the traditional two-step screening method was modified in this experiment. A gradient screening method was used in the indirect competitive ELISA screening process. (1) In the first step, an indirect non-competitive ELISA was used to screen the positive wells that recognized the diphenyl ether structure, but not the carrier protein (BSA). […] The positive wells with relatively small B/B0 were selected, where B is the absorbance in the control well […] etofenprox standard, and B0 is the absorbance in the wells with etofenprox standard. The cells were cloned by limiting dilution, and detected about 10 days after the cloning by using the same two-step method as described above. […]
The affinity for QW8# was determined by indirect non-competitive ELISA. […] The OD450 values measured was used as the vertical coordinates, the values of the logarithm of the antibody concentrations (mol/L) were used as the horizontal coordinates, 4 S-shaped curves corresponding to the 4 concentrations were plotted. […]

Hapten-1-BSA = test: affinity constant (Ka) of the antibody by indirect non-competitive ELISA; assay type: binding; details: antibody derived from mouse ascetic fluid; plate coated with Hapten-1-BSA at 2.0, 1.0, 0.5, 0.25 μg/mL
Description: The affinity for QW8# was determined by indirect non-competitive ELISA. The plate was coated at 37° C. for 2 hours with Hapten-1-BSA at concentrations of 2.0, 1.0, 0.5, and 0.25 μg/mL in an amount of 100 μL/well. After the plate was blocked with a blocking solution for 1 hour, the antibody diluted with PBS (at a dilution factor of 1:2) was added to the plate and the rest steps were the same as those in indirect non-competitive ELISA. The OD450 values measured was used as the vertical coordinates, the values of the logarithm of the antibody concentrations (mol/L) were used as the horizontal coordinates, 4 S-shaped curves corresponding to the 4 concentrations were plotted. The maximum OD value (ODmax) at the top of each S-curve, that is, the concentration of the antibody that corresponds to 50% of the ODmax, was obtained from each curve. The 4 concentrations were paired, and the affinity constant (Ka) of the antibody was calculated by using the formula Ka=(n−1)/2(n[Ab′]t−[Ab]t), where [Ab′]t, and [Ab]t are antibody concentrations corresponding to 50% of two ODmax values in each group, and n is the multiple of the antigen concentration coated in each group.

Row | Molecule | IC50 value of the universal monoclonal antibody [1] | affinity (affinity constant Ka) of the antibody (Hapten-1-BSA)
1 | CCOc1ccc(C(C)(C)COCc2cccc(Oc3ccccc3)c2)cc1 [etofenprox] | 0.02086 µg/mL | 
2 | CC1(C)C(C=C(Cl)Cl)C1C(=O)OCc1cccc(Oc2ccccc2)c1 (stereo not drawn) [permethrin] | 0.0242 µg/mL | 
3 | QW8#: universal monoclonal antibody against type I pyrethroid secreted by hybridoma cell line QW8# (CCTCC C2016164), subtype IgG2a (antibody, V domains shown) VH: QVTLKESGPGILQPSQTLSLTCSFSGFSLSTYGIGIGWIRQSSGRGLEWLAHIWWNDNRYYNIALKSRLTISKDASNNQFFLKLASVDTADIATYYCVRGYGRPFYAMDYWGQGTTVTVSS VL: QAVVTQESALTTSPGETVTLTCRSSTGAVTTSNYVNWVQEKPDHLFTGLIGGTNNRGPGVPARFSGSLIGDKAALTITGTQTEDEAIYFCALWYSNHWVFGGGTKLTVL |  | 2.16e+08 L/mol
